Assay [1] deals with MDCK. In words: Antiviral activity against amantadine-resistant Influenza A virus A/Puerto Rico/8/34 expressing M2 proton channel S31N mutant infected in MDCK cells assessed as inhibition of viral replication at 0.001 to 100 uM measured after 10 hrs by miniplaque assay. In kind it is functional, cell-based. Conditions: Influenza A virus (A/Puerto Rico/8/1934(H1N1)).
The test system of assay [2] is MDCK. As to the kind of experiment: Antiviral activity against amantadine-resistant Influenza A virus A/Puerto Rico/8/34 expressing M2 proton channel V27A mutant infected in MDCK cells assessed as inhibition of viral replication at 100 uM measured after 10 hrs by miniplaque assay. The following applies: Influenza A virus (A/Puerto Rico/8/1934(H1N1)). In kind it is functional, cell-based.

The structures appear in SMILES notation. Activity calls are given as the source filed them. No cut-off for these calls is given here.

Take `CCCCCCCCN1CCN(CCNC2=NC(C)(C)[C@]3(CC[C@H](C)CC3)S2)CC1`: the inhibition result with MDCK [1] is “Active”. Regarding `CCCCN1CCN(CCNC2=NC(C)(C)[C@]3(CC[C@H](C)CC3)S2)CC1`, the inhibition result in the assay with MDCK [2] and with MDCK [1] was “Active” throughout. With `CC(C)CCN1CCN(CCNC2=NC(C)(C)[C@]3(CC[C@H](C)CC3)S2)CC1`, the inhibition entry in the assay with MDCK [2] and with MDCK [1] was “Active” in each case. Take `CC1(C)N=C(NCCN2CCN(Cc3ccccc3)CC2)S[C@]12CC[C@@H](C)CC2`: the inhibition entry in the assay with MDCK [2] and in the assay with MDCK [1] was “Active” each time.

Take `CN(C)CCN1CCN(CCNC2=NC(C)(C)[C@]3(CC[C@H](C)CC3)S2)CC1`: in the assay on MDCK [1], the inhibition entry was “Active”. Consider `CN1CCN(CCNC2=NC(C)(C)[C@]3(CC[C@H](C)CC3)S2)CC1`, for which the inhibition result in the assay on MDCK [1] was “Active”. Take `CCOCCN1CCN(CCNC2=NC(C)(C)[C@]3(CC[C@H](C)CC3)S2)CC1`: the inhibition entry with MDCK [2] and in the assay on MDCK [1] was “Active” in each case.

The values above are taken from ChEMBL document CHEMBL3856190, “Novel spirothiazamenthane inhibitors of the influenza A M2 proton channel” (Eur J Med Chem, 2016).
